Results reported in US10294230B2, “3,3-difluoropiperidine carbamate heterocyclic compounds as NR2B NMDA receptor antagonists” (Rugen Holdings (Cayman) Limited, priority 2015, dated 2019).

Tests used:
[1] = molecular target: NR2B receptor (Rattus norvegicus (Rat), UniProt P35439+Q00960); assay: [3H] (E)-N1-(2-methoxybenzyl)-cinnamidine radioligand binding, rat brain membranes
Experimental: This example describes NMDA receptor binding assays using two different radioligands, [^3H] […] An established binding assay using the non-selective NMDA receptor ligand [^3H] […] The binding assay method using the NR2B selective receptor ligand [^3H] […] This assay serves as a selective measure of NR2B receptor binding activity in native rat brain receptors. Briefly, the brains of Male Wistar rats were homogenized (Polytron) before centrifugation at 40,000×g for 15 minutes at 4° C. After 2 washes, the final pellet was homogenized and stored at −80° C. The protein concentration was determined by Bradford assay.
[^3H] […] Thus, using [^3H]
Test compounds were solubilized at 10 mM in DMSO. Then the dilutions were performed with a constant solvent concentration (1% DMSO) in the assay.
After incubation for 4.5 h at room temperature, the assays were filtered on GF/B filters pretreated with 0.3% (v/v) PEI with a Brandel system for [^3H] […] The experiment was performed in duplicate (n=2).

[2] = test system: pentylenetetrazole (PTZ) induced convulsions; assay: Pentylenetetrazole (PTZ) Seizure Test; assay type: in vivo; settings: 10 mg/kg p.o., mesylate salt
Experimental: Rats, placed in individual macrolon cages (25×19×13 cm), were injected with pentylenetetrazole (PTZ) (100 mg/kg s.c.). The occurrence and latency of clonic and tonic convulsions and death were noted over a 30 minute period. 15 rats were studied per group. The test was performed blind. […]
Compounds were evaluated typically using 0.5% dimethylsulfoxide, 4% hydroxypropyl-b-cyclodextrin water as a vehicle at 1 or more doses (e.g., 1, 3 and 10 mg/kg), administered p.o. 30 minutes before PTZ, and compared with a vehicle control group. Diazepam (16 mg/kg p.o.), administered 60 minutes before PTZ, was used as reference substance. The experiment was performed over 2 separate sub-experiments with N=7 to 8 animals per group and per sub-experiment. Quantitative data (latencies) with the test substance was analyzed by comparing treated groups with vehicle control using Kruskal-Wallis test followed by Mann-Whitney U test. Quantitative data with the reference substance was analyzed using Mann-Whitney U test. Quantal data (frequencies) was analyzed by comparing treated groups with vehicle control using Fisher's Exact Probability tests (*=p<0.05; **=p<0.01; ***=p<0.001).

[3] = molecular target: CYP2D6 (Homo sapiens (Human), UniProt P10635); assay: CYP P450 enzyme inhibition, pooled human liver microsome; assay type: in vitro ADME; settings: 10 μM, pooled HLM, dextromethorphan 5 μM
CYP2D6, sequence (P10635 whole entry): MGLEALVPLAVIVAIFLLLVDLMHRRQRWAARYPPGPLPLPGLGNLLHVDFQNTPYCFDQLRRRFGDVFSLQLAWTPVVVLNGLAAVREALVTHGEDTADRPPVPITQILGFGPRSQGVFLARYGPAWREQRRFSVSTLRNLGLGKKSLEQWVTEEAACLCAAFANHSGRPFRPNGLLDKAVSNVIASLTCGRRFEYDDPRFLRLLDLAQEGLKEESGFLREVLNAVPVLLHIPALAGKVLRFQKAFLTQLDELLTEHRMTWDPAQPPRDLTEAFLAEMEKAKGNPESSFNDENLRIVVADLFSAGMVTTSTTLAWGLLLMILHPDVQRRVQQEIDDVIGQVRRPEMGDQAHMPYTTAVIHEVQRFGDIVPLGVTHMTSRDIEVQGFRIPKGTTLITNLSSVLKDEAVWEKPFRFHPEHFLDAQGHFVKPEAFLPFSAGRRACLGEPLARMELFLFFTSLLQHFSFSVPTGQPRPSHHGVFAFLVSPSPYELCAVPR
Experimental: Those CYP isoforms and their corresponding probe substrates are as follows: CYP1A2 (phenacetin, 30 μM), CYP2C9 (tolutamide, 100 μM), CYP2C19 (S-mephenytoin, 40 μM), CYP2D6 (dextromethorphan, 5 μM) and CYP3A4 (midazolam, 1 μM). All probe substrates were used at concentrations near or below their Kms. For experiment, a reaction mixture of test compound at 10 μM or in serial dilution, CYP probe substrate described above and 0.2 mg/mL pooled HLM in phosphate buffer, pH 7.4 in a final volume of 200 μL was pre-incubated at 37° C. for 10 minutes in triplicate. The reaction was initiated by addition of NADPH at final concentration of 1 mM. The reaction was terminated after 10 minutes (CYP1A2, CYP2D6 and CYP3A4) or 30 minutes (CYP2C9 and CYP2C19) by addition of 100 μL ice-cold acetonitrile with internal standard (IS). The samples were then centrifuged at 13,000 rpm and the supernatants were injected to LC-MS/MS (Agilent Technologies) to quantify the concentration of the specific metabolites of the probe substrates formed by individual CYP450 isoforms. The inhibition ratio is calculated as: (Mt−M0)/Mwater×100% in which Mt and M0 represent the concentrations of the specific probe substrate metabolite, which was formed by individual CYP450 isoform, at the beginning and end of the reaction in the presence of test compound; while Mwater represents the concentration of the specific metabolite at the end of the reaction in the absence of test compound. Test compound concentration-dependent response data experiments performed in triplicate.

NR2B receptor, sequence (Q00960 27-1482, other chains not shown): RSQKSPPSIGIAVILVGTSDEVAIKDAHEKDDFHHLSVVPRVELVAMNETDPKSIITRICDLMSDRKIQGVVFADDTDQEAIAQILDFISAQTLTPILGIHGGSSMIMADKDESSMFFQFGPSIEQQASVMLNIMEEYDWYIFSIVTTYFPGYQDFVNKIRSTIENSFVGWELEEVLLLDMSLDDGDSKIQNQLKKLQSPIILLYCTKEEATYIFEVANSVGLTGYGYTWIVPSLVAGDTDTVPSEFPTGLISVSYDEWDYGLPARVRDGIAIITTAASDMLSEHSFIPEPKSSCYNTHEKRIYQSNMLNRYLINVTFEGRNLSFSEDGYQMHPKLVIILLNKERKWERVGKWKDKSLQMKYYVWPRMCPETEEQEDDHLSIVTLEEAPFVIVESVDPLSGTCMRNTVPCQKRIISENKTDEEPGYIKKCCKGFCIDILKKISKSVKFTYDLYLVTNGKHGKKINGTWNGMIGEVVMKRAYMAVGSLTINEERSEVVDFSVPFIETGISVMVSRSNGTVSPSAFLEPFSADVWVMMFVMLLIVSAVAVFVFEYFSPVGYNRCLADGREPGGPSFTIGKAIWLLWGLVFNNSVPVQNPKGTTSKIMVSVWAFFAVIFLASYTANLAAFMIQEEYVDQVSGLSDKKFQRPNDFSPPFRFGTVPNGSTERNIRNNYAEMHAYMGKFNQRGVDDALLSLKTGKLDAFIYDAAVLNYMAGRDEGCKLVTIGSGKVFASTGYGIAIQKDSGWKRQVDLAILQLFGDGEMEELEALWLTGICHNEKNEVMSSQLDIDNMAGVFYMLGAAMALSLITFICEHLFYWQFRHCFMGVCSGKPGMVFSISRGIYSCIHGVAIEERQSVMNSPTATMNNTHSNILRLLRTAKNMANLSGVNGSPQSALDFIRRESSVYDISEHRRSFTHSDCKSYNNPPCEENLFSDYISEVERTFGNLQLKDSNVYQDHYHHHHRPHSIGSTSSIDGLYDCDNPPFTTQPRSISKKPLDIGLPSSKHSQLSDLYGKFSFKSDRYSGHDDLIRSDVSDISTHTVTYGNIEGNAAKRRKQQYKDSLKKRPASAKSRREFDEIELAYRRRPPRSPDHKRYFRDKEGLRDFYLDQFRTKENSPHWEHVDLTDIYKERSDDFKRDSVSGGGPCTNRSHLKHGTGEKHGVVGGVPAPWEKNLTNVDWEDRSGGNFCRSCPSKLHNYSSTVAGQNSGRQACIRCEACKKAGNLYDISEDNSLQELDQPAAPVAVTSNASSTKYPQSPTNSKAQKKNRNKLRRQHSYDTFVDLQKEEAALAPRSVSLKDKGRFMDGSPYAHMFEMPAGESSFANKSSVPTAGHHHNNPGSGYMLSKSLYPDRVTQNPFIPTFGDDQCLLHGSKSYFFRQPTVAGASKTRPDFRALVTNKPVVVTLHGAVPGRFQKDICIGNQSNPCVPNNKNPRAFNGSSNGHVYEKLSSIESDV

Cc1ccc(COC(=O)N2CC[C@H](CNc3nccn4cnnc34)C(F)(F)C2)cc1 [Compound E1-1.2, (+)-R-4-methylbenzyl 4-(([1,2,4]triazolo[4,3-a]pyrazin-8-ylamino)methyl)-3,3-difluoropiperidine-1-carboxylate]
displacement of [3H] (E)-N1-(2-methoxybenzyl)-cinnamidine at the NR2B receptor high affinity site ([1]; rat brain membranes): 96% | Ki ([1]; read-out: Ki at the NR2B receptor high affinity site): 5.23 nM | number of rats showing tonic convulsions, change vs vehicle controls [2]: −82% | latency to clonic convulsions, change vs vehicle controls ([2]; rats): +72% | latency to death, change vs vehicle controls ([2]; rats): +35% | latency to tonic convulsions, change vs vehicle controls ([2]; rats): +39% | number of deaths, change vs vehicle controls ([2]; rats): −91% | CYP2D6 @ 10 μM (%) [3]: 14%
